Results reported in patent publication US8168779B2, “Anhydrous crystalline β-maltose, its preparation and uses” (priority 2006, dated 2012).

How the values were obtained:
Type in all cases: physicochemical
[1] = Hygroscopicity test (moisture content under controlled relative humidity); conditions: 27° C.
Protocol: Moisture contents of the samples at respective periods were measured based on the change of weight from the start of the test. The moisture contents of the samples at the start of the test were measured by Karl Fischer's method.

[2] = Powderizing test by admixing deionized water; conditions: 25° C.
Protocol: (§1) The usefulness of the crystal was judged by the amount of deionized water added to the limit of keeping the powder form. The form of the powder was evaluated by the following four phases: (1) powder; (2) lump (it keeps a powder form while it comprises lumps); (3) cake; and (4) paste. As a control, the anhydrous crystalline α-maltose used in Example 2 was treated by the same procedure. The test was carried out in a room where the temperature was kept at 25° C. The results of the test and the form of each sample after admixing with 1.25 ml of deionized water are shown in Table 7 and FIG. 15, respectively.

[3] = Powderizing test by admixing dehydrated ethanol
Protocol: as §1, with “respectively. […] The results of the test and the form of each sample after admixing with 6 ml of dehydrated ethanol are shown in Table 8 and FIG. 16, respectively.” for “respectively.”

[4] = Specific surface area by nitrogen adsorption isotherms (BET); conditions: BET method, listed as anhydrous crystalline β-maltose converted by the ethanol treatment
Protocol: About 3 g of the anhydrous crystalline β-maltose, obtained in Example 1, was dried in the apparatus under a reduced pressure at about 40° C. for about 15 hours as a pretreatment, and then used for the measurement of specific surface area by the nitrogen adsorption isotherms. The result was analyzed by conventional BET (Brunnauer, Emmet, and Teller) method.

Structure (SMILES): OC[C@H]1O[C@H](O[C@H]2[C@H](O)[C@@H](O)[C@H](O)O[C@@H]2CO)[C@H](O)[C@@H](O)[C@@H]1O [anhydrous crystalline β-maltose]
- Moisture content of samples ([1]; RH 47% (lithium nitrate), 0 hour (start, Karl Fischer), listed as AC* β-Mal (Present invention)): 0.32 %, w/w
- Moisture content of samples ([1]; RH 47% (lithium nitrate), 2 hours, listed as AC* β-Mal (Present invention)): 0.30 %, w/w
- Moisture content of samples ([1]; RH 47% (lithium nitrate), 4 hours, listed as AC* β-Mal (Present invention)): 0.28 %, w/w
- Moisture content of samples ([1]; RH 47% (lithium nitrate), 24 hours, listed as AC* β-Mal (Present invention)): 0.27 %, w/w
- Moisture content of samples ([1]; RH 47% (lithium nitrate), 96 hours, listed as AC* β-Mal (Present invention)): 0.34 %, w/w
- Moisture content of samples ([1]; RH 47% (lithium nitrate), 192 hours, listed as AC* β-Mal (Present invention)): 0.28 %, w/w
- Moisture content of samples ([1]; RH 58% (sodium bromide), 0 hour (start, Karl Fischer), listed as AC β-Mal (Present invention)): 0.32 %, w/w
- Moisture content of samples ([1]; RH 58% (sodium bromide), 2 hours, listed as AC β-Mal (Present invention)): 0.32 %, w/w
- Moisture content of samples ([1]; RH 58% (sodium bromide), 4 hours, listed as AC β-Mal (Present invention)): 0.33 %, w/w
- Moisture content of samples ([1]; RH 58% (sodium bromide), 6 hours, listed as AC β-Mal (Present invention)): 0.36 %, w/w
- Moisture content of samples ([1]; RH 58% (sodium bromide), 8 hours, listed as AC β-Mal (Present invention)): 0.35 %, w/w
- Moisture content of samples ([1]; RH 58% (sodium bromide), 24 hours, listed as AC β-Mal (Present invention)): 0.35 %, w/w
- Moisture content of samples ([1]; RH 58% (sodium bromide), 96 hours, listed as AC β-Mal (Present invention)): 1.47 %, w/w
- Moisture content of samples ([1]; RH 58% (sodium bromide), 192 hours, listed as AC β-Mal (Present invention)): 4.16 %, w/w
- Moisture content of samples ([1]; RH 75% (sodium chloride), 0 hour (start, Karl Fischer), listed as AC β-Mal (Present invention)): 0.32 %, w/w
- Moisture content of samples ([1]; RH 75% (sodium chloride), 2 hours, listed as AC β-Mal (Present invention)): 0.66 %, w/w
- Moisture content of samples ([1]; RH 75% (sodium chloride), 4 hours, listed as AC β-Mal (Present invention)): 2.37 %, w/w
- Moisture content of samples ([1]; RH 75% (sodium chloride), 6 hours, listed as AC β-Mal (Present invention)): 3.93 %, w/w
- Moisture content of samples ([1]; RH 75% (sodium chloride), 8 hours, listed as AC β-Mal (Present invention)): 4.51 %, w/w
- Moisture content of samples ([1]; RH 75% (sodium chloride), 24 hours, listed as AC β-Mal (Present invention)): 4.54 %, w/w
- Moisture content of samples ([1]; RH 75% (sodium chloride), 96 hours, listed as AC β-Mal (Present invention)): 4.57 %, w/w
- Moisture content of samples ([1]; RH 75% (sodium chloride), 192 hours, listed as AC β-Mal (Present invention)): 5.19 %, w/w
- Moisture content of samples ([1]; RH 90% (barium chloride), 0 hour (start, Karl Fischer), listed as AC β-Mal (Present invention)): 0.32 %, w/w
- Moisture content of samples ([1]; RH 90% (barium chloride), 2 hours, listed as AC β-Mal (Present invention)): 1.72 %, w/w
- Moisture content of samples ([1]; RH 90% (barium chloride), 4 hours, listed as AC β-Mal (Present invention)): 4.53 %, w/w
- Moisture content of samples ([1]; RH 90% (barium chloride), 6 hours, listed as AC β-Mal (Present invention)): 4.79 %, w/w
- Moisture content of samples ([1]; RH 90% (barium chloride), 8 hours, listed as AC β-Mal (Present invention)): 4.58 %, w/w
- Moisture content of samples ([1]; RH 90% (barium chloride), 24 hours, listed as AC β-Mal (Present invention)): 4.66 %, w/w
- Moisture content of samples ([1]; RH 90% (barium chloride), 96 hours, listed as AC β-Mal (Present invention)): 4.82 %, w/w
- Moisture content of samples ([1]; RH 90% (barium chloride), 192 hours, listed as AC β-Mal (Present invention)): 5.38 %, w/w
- Form of the powder after admixing deionized water ([2]; 10 g crystal + 0.25 ml water (moisture content 2.4%, w/w)): Powder form
- Form of the powder after admixing deionized water ([2]; 10 g crystal + 0.50 ml water (moisture content 4.8%, w/w)): Powder form
- Form of the powder after admixing deionized water ([2]; 10 g crystal + 0.75 ml water (moisture content 7.0%, w/w)): Powder form
- Form of the powder after admixing deionized water ([2]; 10 g crystal + 1.00 ml water (moisture content 9.1%, w/w)): Powder form
- Form of the powder after admixing deionized water ([2]; 10 g crystal + 1.25 ml water (moisture content 11.1%, w/w)): Powder form
- Form of the powder after admixing deionized water ([2]; 10 g crystal + 1.50 ml water (moisture content 13.0%, w/w)): Lump form
- Form of the powder after admixing deionized water ([2]; 10 g crystal + 1.75 ml water (moisture content 14.9%, w/w)): Lump form
- Form of the powder after admixing deionized water ([2]; 10 g crystal + 2.00 ml water (moisture content 16.7%, w/w)): Lump form
- Form of the powder after admixing dehydrated ethanol ([3]; 10 g crystal + 3.0 ml ethanol (24.3 v/w %)): Powder form
- Form of the powder after admixing dehydrated ethanol ([3]; 10 g crystal + 3.5 ml ethanol (27.5 v/w %)): Powder form
- Form of the powder after admixing dehydrated ethanol ([3]; 10 g crystal + 4.0 ml ethanol (30.5 v/w %)): Powder form
- Form of the powder after admixing dehydrated ethanol ([3]; 10 g crystal + 4.5 ml ethanol (33.3 v/w %)): Powder form
- Form of the powder after admixing dehydrated ethanol ([3]; 10 g crystal + 5.0 ml ethanol (36.0 v/w %)): Powder form
- Form of the powder after admixing dehydrated ethanol ([3]; 10 g crystal + 5.5 ml ethanol (38.5 v/w %)): Powder form
- Form of the powder after admixing dehydrated ethanol ([3]; 10 g crystal + 6.0 ml ethanol (40.9 v/w %)): Powder form
- Form of the powder after admixing dehydrated ethanol ([3]; 10 g crystal + 7.0 ml ethanol (45.3 v/w %)): Powder form
- Form of the powder after admixing dehydrated ethanol ([3]; 10 g crystal + 8.0 ml ethanol (49.3 v/w %)): Powder form
- Form of the powder after admixing dehydrated ethanol ([3]; 10 g crystal + 9.0 ml ethanol (52.9 v/w %)): Lump form
- Form of the powder after admixing dehydrated ethanol ([3]; 10 g crystal + 10.0 ml ethanol (56.2 v/w %)): Lump form
- Form of the powder after admixing dehydrated ethanol ([3]; 10 g crystal + 11.0 ml ethanol (59.2 v/w %)): Cake form
- Specific surface area [4]: 3.39 m^2/g
